According to patent US20250170100A1, “MONOACYLGLYCEROL LIPASE INHIBITORS AND USE THEREOF FOR THE TREATMENT OF ANXIETY AND RELATED CONDITIONS” (Psy Therapeutics, Inc., priority 2021, published 2025):
Where two headings read alike, the source gives them in different places. One block for each compound: values may come before it.

What was measured:
human MAGL [1] = biological target: T1, human MAGL (Homo sapiens (Human), UniProt Q99685); test: MAGL inhibition potency assay with 4NPA substrate (methods of Table C); format: biochemical; details: Method 1: Reaction Biology MAGL enzyme, 6 nM; read-out: MAGL Potency (Detection Method)
From the text: Cayman's Monoacylglycerol Lipase Inhibitor Screening Assay provides a method for screening human MAGL inhibitors. MAGL hydrolyzes 4-nitrophenylacetate resulting in a yellow product, 4-nitrophenol, with an absorbance of 405-412 nm. The monoacylglycerol lipase inhibitor screening assay kit from Cayman Chemical was used to measure the MAGL potency for the compounds in Table 3 and Table 4. Cayman's Monoacylglycerol Lipase Inhibitor Screening Assay provides a method for screening human MAGL inhibitors. MAGL hydrolyzes 4-nitrophenylacetate resulting in a yellow product, 4-nitrophenol, with an absorbance of 405-412 nm. MAGL Inhibition was measured by the following assay. Monoacylglycerol Lipase (MAGL) inhibition was measured using recombinant MAGL enzyme (aa 2-303 RBC, internal preparation) and the substrate 4-Nitrophenyl acetate (4NPA) (Sigma-Aldrich, N8130). Hydrolysis of the substrate in the presence of the enzyme was measured by absorbance at 405 nm. 10 μL of assay buffer (10 mM Tris pH 7.5, 1 mM EDTA, 0.9% DMSO) was added to a black 384-well non-binding plate with clear bottom (Greiner, 781906) for each reaction. […] DMSO control wells were included for reference. A 10.8 nM (1.8×) MAGL mix in assay buffer was prepared, with […] added to each reaction well, for a final assay concentration of 6 nM. No enzyme wells received 25 μL of buffer. Plate was incubated at room temperature for 30 minutes. 35 mM solution of 4NPA in methanol was prepared daily. A 4.5×4NPA substrate solution was prepared in assay buffer and 10 μL was added to each reaction well, for a final assay concentration of 0.25 mM. Plate was spun for 1 minute at 1000 rpm before measuring absorbance using a CLARIOstar plate reader (BMG Labtech). A kinetic reading at 405 nm was done every minute for 30 minutes. Data was analyzed using the linear slope of the reaction progress curve and the average of the no-enzyme wells (background) was subtracted from the data. The background-subtracted slope data was converted to % activity using the average of wells with enzyme and DMSO vehicle. IC50s were calculated using GraphPad software (Sigmoidal dose response, variable slope equation). […] Table 5 provides potency measurements of MAGL inhibition measured using the Potency Assay of Example 18 above, with the following modifications described in Table C. [table]
Target sequence in this assay (Q99685 2-303): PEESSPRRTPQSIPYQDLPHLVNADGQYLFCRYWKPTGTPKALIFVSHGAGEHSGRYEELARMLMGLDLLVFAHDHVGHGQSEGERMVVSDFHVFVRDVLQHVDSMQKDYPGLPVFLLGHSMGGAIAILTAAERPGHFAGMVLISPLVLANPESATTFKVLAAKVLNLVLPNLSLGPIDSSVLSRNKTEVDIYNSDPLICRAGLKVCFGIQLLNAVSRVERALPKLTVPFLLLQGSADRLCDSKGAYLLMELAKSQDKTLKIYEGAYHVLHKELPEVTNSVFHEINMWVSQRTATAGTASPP

human MAGL [2] = biological target: T1, human MAGL; test: MAGL reversible inhibition assay (washout); format: biochemical; details: for A: degree to which MAGL enzymatic activity returned following washout: pre-washout compound concentration: 1 μM; for B: % MAGL activity returning after washout: relative to control, immediately following a 30 minute washout
Method: The reversible mechanism of MAGL inhibition of a test compound of Formula (I) can be determined. Flag-tagged MAGL enzyme will be immobilized on anti-Flag beads. Immobilized enzyme will be incubated+/−inhibitor at a dose that produces complete inhibition. Colorimetric substrate (4-NPA) will be added and the reaction monitored on a plate reader for 30 minutes to verify complete inhibition. Immobilized enzyme will then be washed thoroughly to remove the inhibitor, and fresh substrate will be added. The reaction will be monitored for an additional 30 minutes; returning enzymatic activity will indicate reversibility of inhibition.
MAGL enzyme was incubated for 30 minutes in the presence of 40× the IC50 concentration of inhibitor. Enzyme+inhibitor mix was then diluted 40-fold so that the final concentration of the inhibitor equaled the IC50 concentration. Substrate was added and the reaction was monitored for 30 minutes.
Target sequence in this assay (Q99685 whole entry): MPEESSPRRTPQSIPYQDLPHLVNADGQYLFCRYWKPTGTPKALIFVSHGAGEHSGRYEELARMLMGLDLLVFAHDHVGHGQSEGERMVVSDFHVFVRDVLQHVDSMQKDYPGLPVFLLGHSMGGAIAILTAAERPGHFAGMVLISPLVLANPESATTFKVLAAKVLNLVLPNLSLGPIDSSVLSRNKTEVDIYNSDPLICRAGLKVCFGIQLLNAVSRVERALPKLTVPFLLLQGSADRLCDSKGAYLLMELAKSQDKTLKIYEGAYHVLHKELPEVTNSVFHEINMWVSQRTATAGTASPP

2-AG levels in brain = test: 2-AG estimation in mouse brain after single intraperitoneal administration of Compound 74; format: in vivo, male C57BL/6 mice; details: for Mean 2AG Brain Concentration: 0.5 h
Method: (§1) This experiment was performed to determine plasma pharmacokinetics and estimate 2-AG levels in male C57BL/6 mice brain following a single intraperitoneal administration of Compound-74 (Dose: 5, 15, 50 and 150 mg/kg). The experiment was repeated at 150 mg/kg on 3 separate test dates to obtain the data shown in FIG. 1A (plasma and brain concentration of Compound 74 30 minutes after IP injection), and on the first and third test dates to obtain the data shown in FIG. 1B (brain concentration of 2-AG30 minutes after IP injection of Compound 74).
(§2) Study Design: A total of thirty male mice were used into the study and divided in to five groups with six mice in each group (n=6 mice/group/treatment design). Animals in Group 1 to Group 4 were administered intraperitoneally with Compound 74 solution formulation at 5, 15, 50 and 150 mg/kg dose, respectively. Animals in Group 5 were administered intraperitoneally with vehicle at 2 mL/kg dose. Blood and brain samples were collected at 0.5 h post dose. Mice were euthanized by cervical dislocation and brain samples were dissected rapidly and snap frozen in liquid nitrogen, weighed and homogenized in 2 mL of acetonitrile containing 2-AGd5. Blood samples were centrifuged at 4000 rpm for 10 minutes at 4° C. Plasma was harvested and separated in pre-labeled tubes. All samples were stored below −70° C. until bioanalysis.
(§3) Analysis: Brain samples were processed for 2-AG estimation. 2-AG levels were the detected values. Plasma concentrations were determined by fit for purpose LC-MS/MS method. LLOQ: 5.09 ng/mL (Plasma and brain)

[3] = Plasma and brain concentrations after single intraperitoneal administration of Compound 74; format: in vivo, male C57BL/6 mice; details: male, C57BL/6, mouse; for Kp at 0.5 h: brain/plasma, read-out: Brain Plama Ratio (Kp) range
Method: as §1, §2, §3

human MAGL [4] = biological target: T1, human MAGL; test: MAGL inhibition potency assay with 4NPA substrate (methods of Table C); format: biochemical
Target sequence in this assay (Q99685 2-303): as the sequence (Q99685 2-303) above

human recombinant FAAH = human recombinant FAAH (Homo sapiens (Human), UniProt O00519); test: FAAH counter screen (Fatty Acid Amide Hydrolase Inhibitor Screening Assay Kit); format: biochemical
Method: MAGL inhibitor compounds were also counter-screened for FAAH inhibition potency using the following assay. Assessment of FAAH inhibition was performed using Fatty Acid Amide Hydrolase Inhibitor Screening Assay Kit (Cayman Item No. 10005196) following manufacture's instruction with some modifications. The kit utilizes human recombinant FAAH and the fluorescent substrate, AMC Arachidonoyl amide (AAMCA). 5 μL of assay buffer (125 mM Tris, pH 9.0, 1 mM EDTA, i.e. ethylenediaminetetraacetic acid) was added to a 384-well black plate (Corning, 3573). Test compounds and control inhibitor JZL-195 (Cayman Chemical, 13668) were tested in 10-concentration IC50 mode with 3-fold serial dilution at a starting concentration of 100 μM and 10 μM, respectively. 300 nL or 30 nL of test compounds were delivered into a 384-well black plate (Corning, 3573) using a Labcyte Echo, followed by addition of 15 μL of FAAH enzyme (Cayman, 700302) in assay buffer. After a 5-minute pre-incubation at room temperature, 10 μL of AAMCA was added in assay buffer to start the reaction. Final concentration of FAAH enzyme is not specified and AAMCA substrate was used at the 20 μM. After these dilutions, the final concentration of the test compounds ranged from 100 μM to 5.08 nM or 10 μM down to 0.508 nM. The reaction was allowed to progress for 60 minutes, while the plate was read on an Envision plate reader at an Ex/Em of 350/460 nm with readings every minute. The data was analyzed in Microsoft Excel, using the slope between 30 and 59 minutes. The average of the no-enzyme wells (background) was subtracted from the data. The background-subtracted slope data was converted to % activity using the average of wells with enzyme and DMSO vehicle. IC50 values were calculated using GraphPad software (Sigmoidal dose response, variable slope equation).
Compounds listed in Table D2 were tested in the FAAH Counterscreen of Example 19

[5] = Method 2: Cayman Chemical MAGL enzyme, 10 nM, read-out: MAGL Potency (Detection Method)
[6] = Method A: starting concentration of 100 μM

human recombinant FAAH, sequence (O00519 whole entry): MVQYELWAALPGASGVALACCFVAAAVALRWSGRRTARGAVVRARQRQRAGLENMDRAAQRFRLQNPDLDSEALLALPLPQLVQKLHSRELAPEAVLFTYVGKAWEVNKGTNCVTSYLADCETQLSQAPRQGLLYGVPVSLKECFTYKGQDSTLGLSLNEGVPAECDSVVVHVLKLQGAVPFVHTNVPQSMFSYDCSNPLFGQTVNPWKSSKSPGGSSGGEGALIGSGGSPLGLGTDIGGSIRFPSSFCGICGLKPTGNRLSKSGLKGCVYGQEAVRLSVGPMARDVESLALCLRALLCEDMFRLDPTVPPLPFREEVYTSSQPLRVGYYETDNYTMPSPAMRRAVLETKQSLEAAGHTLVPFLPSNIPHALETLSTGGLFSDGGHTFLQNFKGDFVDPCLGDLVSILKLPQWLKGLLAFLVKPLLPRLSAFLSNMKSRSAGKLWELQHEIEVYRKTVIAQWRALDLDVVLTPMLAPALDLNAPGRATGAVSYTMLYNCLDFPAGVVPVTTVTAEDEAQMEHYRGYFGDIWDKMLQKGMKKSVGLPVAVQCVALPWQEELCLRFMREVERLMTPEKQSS

Compound: Cc1cc(C2CC3(C2)CN(C(=O)c2cc(O)ccc2F)C3)n(-c2ccccc2C)n1 [Compound 74, (2-fluoro-5-hydroxyphenyl) (6-(3-methyl-1-(o-tolyl)-1H-pyrazol-5-yl)-2-azaspiro[3.3]heptan-2-yl) methanone]
IC50 (human MAGL [1]): < 0.05 µM
A: degree to which MAGL enzymatic activity returned following washout (human MAGL [2]): 162
B: % MAGL activity returning after washout (human MAGL [2]): >50%
Mean 2AG Brain Concentration (2-AG levels in brain; IP 5 mg/kg): 13.13 nmol/g
Mean 2AG Brain Concentration (2-AG levels in brain; IP 15 mg/kg): 13.46 nmol/g
Mean 2AG Brain Concentration (2-AG levels in brain; IP 50 mg/kg): 42.35 nmol/g
Mean 2AG Brain Concentration (2-AG levels in brain; IP 150 mg/kg): 120.02 nmol/g
levels of 2-AG compared to baseline (vehicle treatment) (2-AG levels in brain; IP 5 and 15 mg/kg dose): elevated slightly
levels of 2-AG compared to baseline (vehicle treatment) (2-AG levels in brain; IP 50 and 150 mg/kg dose groups): significant increase
concentration at 0.5 h ([3]; brain, IP 5 mg/kg, read-out: Brain concentration range): 16 to 19 ng/g
concentration at 0.5 h ([3]; brain, IP 15 mg/kg, read-out: Brain concentration range): 25 to 67 ng/g
concentration at 0.5 h ([3]; brain, IP 50 mg/kg, read-out: Brain concentration range): 34 to 1250 ng/g
concentration at 0.5 h ([3]; brain, IP 150 mg/kg, read-out: Brain concentration range): 2410 to 12100 ng/g
Kp at 0.5 h ([3]; IP 5 mg/kg): 0.51 to 0.68
Kp at 0.5 h ([3]; IP 15 mg/kg): 0.16 to 0.44
Kp at 0.5 h ([3]; IP 50 mg/kg): 0.06 to 0.08
Kp at 0.5 h ([3]; IP 150 mg/kg): 0.07 to 0.2
concentration at 0.5 h ([3]; plasma, IP 5 mg/kg, read-out: Plasma concentration range): 0.012 to 0.186 µg/mL
concentration at 0.5 h ([3]; plasma, IP 15 mg/kg, read-out: Plasma concentration range): 0.07 to 0.414 µg/mL
concentration at 0.5 h ([3]; plasma, IP 50 mg/kg, read-out: Plasma concentration range): 0.447 to 14.9 µg/mL
concentration at 0.5 h ([3]; plasma, IP 150 mg/kg, read-out: Plasma concentration range): 34.9 to 70.3 µg/mL
IC50 (human MAGL [4]; [5]): < 0.05 µM
IC50 (human MAGL [4]; Method 3: Reaction Biology MAGL enzyme, 10 nM, read-out: MAGL Potency (Detection Method)): < 0.05 µM
IC50 (human MAGL [4]; Method 4: Cayman Chemical MAGL enzyme, 15 nM, read-out: MAGL Potency (Detection Method)): 0.05 to 0.15 µM
IC50 (human MAGL [4]; Method 5: Cayman Chemical MAGL enzyme, 25 nM, read-out: MAGL Potency (Detection Method)): < 0.05 µM

IC50 (human recombinant FAAH; [6]): > 10 µM
Compound: Cc1ccccc1-n1nc(C2CC3(C2)CN(C(=O)c2cc(O)ccc2F)C3)cc1C [Compound 117]

IC50 (human recombinant FAAH; [6]): > 10 µM
Compound: Cc1cc(C2CC3(C2)CN(C(=O)c2ccccc2F)C3)n(-c2ccccc2C)n1 [Compound 122, (2-fluorophenyl)(6-(3-methyl-1-(o-tolyl)-1H-pyrazol-5-yl)-2-azaspiro[3.3]heptan-2-yl)methanone]

IC50 (human recombinant FAAH; [6]): > 10 µM
IC50 (human MAGL [4]; Method 2: Cayman Chemical MAGL enzyme, 10 nM, read-out: Potency (MAGL inhibition)): > 10 µM
Compound: COc1ccc(F)c(C(=O)N2CC3(CC(c4cc(C)nn4-c4ccccc4C)C3)C2)c1 [Compound 123, (2-fluoro-5-methoxyphenyl)(6-(3-methyl-1-(o-tolyl)-1H-pyrazol-5-yl)-2-azaspiro[3.3]heptan-2-yl)methanone]

IC50 (human recombinant FAAH; [6]): > 10 µM
Compound: Cc1cc(C2CC3(C2)CN(C(=O)c2cccc(O)c2)C3)n(-c2ccccc2C)n1 [Compound 125, (3-hydroxyphenyl)(6-(3-methyl-1-(o-tolyl)-1H-pyrazol-5-yl)-2-azaspiro[3.3]heptan-2-yl)methanone]

IC50 (human recombinant FAAH; [6]): > 10 µM
Compound: Cc1cc(C2CC3(C2)CN(C(=O)c2c(F)ccc(O)c2F)C3)n(-c2ccccc2C)n1 [Compound 127, (2,6-difluoro-3-hydroxyphenyl)(6-(3-methyl-1-(o-tolyl)-1H-pyrazol-5-yl)-2-azaspiro[3.3]heptan-2-yl)methanone]

IC50 (human recombinant FAAH; Method B: starting concentration of 10 μM): > 10 µM
A: degree to which MAGL enzymatic activity returned following washout (human MAGL [2]): 47
Compound: O=C(c1cc(O)ccc1F)N1CC2(CC(n3cc(C4CC4)c(-c4ccccc4F)n3)C2)C1 [Compound 493]

Compound: O=C(Oc1ccc([N+](=O)[O-])cc1)N1CCC(C(O)(c2ccc3c(c2)OCO3)c2ccc3c(c2)OCO3)CC1 [JZL-184, reference compound]
A: degree to which MAGL enzymatic activity returned following washout (human MAGL [2]): complete lack of return of MAGL enzymatic activity
B: % MAGL activity returning after washout (human MAGL [2]): <1%

IC50 (human recombinant FAAH; [6]): > 10 µM
IC50 (human MAGL [4]; [5]): 0.15 to 0.5 µM
Compound: (2-fluoro-5-hydroxyphenyl) (6-(3-methyl-1-(o-tolyl)-1H-pyrazol-5-yl)-2-azaspiro[3.3]hept-5-en-2-yl) methanone [Compound 120]
